Test results reported in patent US12447156B2, “Treating progressive familial intrahepatic cholestasis (PFIC) with IBAT inhibitors” (ALBIREO AB, priority 2020, dated 2025).
Several values for one entry are separate records, joined by “and”; a condition that tells them apart may be missing. Equal values may be shown once.

Tested on: children with PFIC1 or PFIC2
Experiment: PEDFIC 1 phase 3 randomized, double-blind, placebo-controlled trial: efficacy (pruritus, serum bile acids, hepatic parameters, growth, sleep)
Assay type: in vivo, human
Conditions: for Proportion of Positive Pruritus Assessments Over the Treatment Period, Mean (SE) / Proportion of Positive Pruritus Assessments, Mean Difference vs Placebo (least squares means): 24 weeks; for least squares mean treatment difference vs placebo in proportion of positive pruritus assessments / least square mean proportion of positive pruritus assessments at the patient level: over 24 weeks; for least square mean proportion of positive pruritus assessments at the patient level: ObsRO
Experimental: Odevixibat is an orally administered, potent, luminally restricted, selective IBAT inhibitor in development to treat cholestatic liver diseases. In this phase 3, randomized, 24-week trial (PEDFIC 1), the efficacy and safety of odevixibat versus placebo was evaluated in children with PFIC1 or PFIC2. The efficacy of odevixibat in patients with PFIC was evaluated a 24-week, randomized, double-blind, placebo-controlled trial conducted in 62 patients with a confirmed diagnosis of PFIC Type 1 or Type 2 (NCT03566238; European Union (EU), 2017-002338-21; PEDFIC1; FIG. 1). Patients were randomized 1:1:1 to placebo, or 40 or 120 μg/kg odevixibat and stratified by PFIC Type (1 or 2) and age (6 months to 5 years, 6 to 12 years, and 13 to ≤18 years). Patients with pathologic variations of the ABCB11 gene that predict complete absence of the bile salt export pump (BSEP) protein and those with alanine aminotransferase (ALT)>10×ULN or bilirubin>5×ULN were excluded from the study.
The study consisted of a screening phase and parallel-design treatment period (FIG. 1). Two screening visits occurred: the first took place during days −56 to −35 prior to the first dose of study drug and the second occurred during days −28 to −7. On day 0, all eligible patients were randomized 1:1:1 to oral, once-daily placebo, 40 μg/kg/day odevixibat, or 120 μg/kg/day odevixibat. After written informed consent was obtained, an 8-digit patient identification number was assigned by the Interactive Web Response System (IWRS). The first two digits denoted country, followed by a 3-digit site number, and a 3-digit patient sequence number. The randomization codes were computer generated by a biostatistician at ICON Clinical Research Ltd (Dublin, Ireland) and kept by an unblinded statistician at Firma Clinical Research (Chicago, IL, USA), independent from the project team. Patients deemed eligible for randomization were assigned a unique 4 digit randomization number by the IWRS that identified which treatment was allocated to the patient. Randomization was done in a block size of six and stratified according to PFIC type 1 or 2 and age group (6 months to 5 years, 6 to 12 years, and 13 to ≤18 years) to ensure approximate balance between dose schemes (1:1:1). A separate randomization list was prepared for the patients who had taken part in study A4250-003, regardless of stratification. Randomization codes were assigned sequentially as patients became eligible for randomization. The IWRS system assigned a study drug number(s) corresponding to the randomization arm at each dispensing visit. A 5-digit study drug number identified study drug packs and was detailed on the study drug label.
Treatment was dispensed during on-site clinic visits, and patients or caregivers were instructed to take or administer the study drug at home each morning, either as an intact capsule(s) (swallowed with a glass of water and with food) or sprinkled on soft, room-temperature food (e.g., applesauce, followed by water). The double-blind PEDFIC 1 treatment period lasted 24 weeks.
Children (aged 0.5 to 18 years) with genetic confirmation of biallelic pathogenic mutations in the ATP8B1 (i.e., PFIC1) or ABCB11 genes (i.e., PFIC2), elevated serum bile acids (≥100 μmol/L), history of significant pruritus, and an average caregiver-reported observed scratching score ≥2 (calculated from daily electronic diary [eDiary] entries) in the 14 days prior to randomization, were eligible for inclusion. Additionally, caregivers or age-appropriate patients (≥8 years of age) agreed to use the eDiary device to record symptoms. Patients with two mutations in ABCB11 predicting a complete absence of functional bile salt export pump protein were excluded.
Two different primary endpoints were evaluated. The first primary endpoint in this study was the proportion of positive pruritus assessments at the patient level over the 24-week treatment period based on an observer-reported outcome (ObsRO) instrument. […]

CCCCC1(CCCC)CN(c2ccccc2)c2cc(SC)c(OCC(=O)N[C@@H](C(=O)N[C@@H](CC)C(=O)O)c3ccc(O)cc3)cc2S(=O)(=O)N1 [Odevixibat, 1,1-dioxo-3,3-dibutyl-5-phenyl-7-methylthio-8-(N-{(R)-α-[N-((S)-1-carboxypropyl)carbamoyl]-4-hydroxybenzyl}carbamoylmethoxy)-2,3,4,5-tetrahydro-1,2,5-benzothiadiazepine]
Patients with Reduction in Serum Bile Acids, % Difference vs Placebo (PEDFIC 1, 40 μg/kg/day): 44.1% | mean percentage difference vs placebo in patients who met the serum bile acid reduction endpoint (PEDFIC 1, 40 μg/kg/day): 44.1% | Proportion of Positive Pruritus Assessments Over the Treatment Period, Mean (SE) (PEDFIC 1, 40 μg/kg/day (n = 23)): 58.31 (6.205) | Proportion of Positive Pruritus Assessments, Mean Difference vs Placebo (least squares means) (PEDFIC 1, 40 μg/kg/day): 28.23 (9.182) | Autotaxin, change from baseline to week 24, mean (PEDFIC 1, 40 μg/kg/day, n 14): -1698 ng/mL | APRI, change from baseline to week 24, mean (PEDFIC 1, 40 μg/kg/day, n 15): −0.1 | C4 (7alpha-hydroxy-4-cholesten-3-one), change from baseline to week 24, mean (PEDFIC 1, 40 μg/kg/day, n 15): 15.7 ng/mL | FIB-4, change from baseline to week 24, mean (PEDFIC 1, 40 μg/kg/day, n 15): 0.0 | PELD/MELD, change from baseline to week 24, mean (PEDFIC 1, 40 μg/kg/day, n 15): −2.4 | GGT, change from baseline to week 24, mean (SE) (PEDFIC 1, 40 μg/kg/day, n 17): −3 (2) U/L | Serum AST, change from baseline to week 24, mean (PEDFIC 1, 40 μg/kg/day, n 17): −37 U/L | Total bilirubin, change from baseline to week 24, mean (PEDFIC 1, 40 μg/kg/day, n 17): -1.4 mg/dL | Proportion of Patients with Reduction in Serum Bile Acids at End of Treatment (PEDFIC 1, 40 μg/kg/day, n = 23): 10 (43.5) n (%) | least squares mean treatment difference vs placebo in proportion of positive pruritus assessments (PEDFIC 1, 40 μg/kg/day): 28.2% | least square mean proportion of positive pruritus assessments at the patient level (PEDFIC 1, 40 μg/kg/day): 58% | proportion of patients achieving a serum bile acid response (≥70% reduction or ≤70 μmol/L) (PEDFIC 1, 40 μg/kg/day, week 24): 44% | mean (SE) change from baseline to end of treatment in height z-score (PEDFIC 1, 40 μg/kg/day, placebo 0.10 (0.102)): 0.29 (0.106) | mean (SE) change from baseline to end of treatment in ALT (PEDFIC 1, 40 μg/kg/day, placebo 3.7 (4.95)): −27.9 (17.97) U/L | mean change from baseline to end of treatment in percentage of days sleeping with the caregiver (PEDFIC 1, 40 μg/kg/day, placebo −5.5%): −49.4% | mean change from baseline to end of treatment in percentage of days requiring soothing (PEDFIC 1, 40 μg/kg/day, placebo −7.6%): −51.5% | Patients with Reduction in Serum Bile Acids, % Difference vs Placebo (PEDFIC 1, 120 μg/kg/day): 21.6% | mean (SE) change from baseline to end of treatment in ALT (PEDFIC 1, 120 μg/kg/day): −25.3 (22.47) U/L | mean (SE) change from baseline to end of treatment in height z-score (PEDFIC 1, 120 μg/kg/day): 0.15 (0.124) | mean change from baseline to end of treatment in percentage of days requiring soothing (PEDFIC 1, 120 μg/kg/day): −34.9% | mean change from baseline to end of treatment in percentage of days sleeping with the caregiver (PEDFIC 1, 120 μg/kg/day): −33.1% | mean percentage difference vs placebo in patients who met the serum bile acid reduction endpoint (PEDFIC 1, 120 μg/kg/day): 21.6% | Proportion of Positive Pruritus Assessments Over the Treatment Period, Mean (SE) (PEDFIC 1, 120 μg/kg/day (n = 19)): 47.69 (8.110) | Proportion of Positive Pruritus Assessments, Mean Difference vs Placebo (least squares means) (PEDFIC 1, 120 μg/kg/day): 21.71 (9.892) | APRI, change from baseline to week 24, mean (PEDFIC 1, 120 μg/kg/day, n 8): 0.0 | FIB-4, change from baseline to week 24, mean (PEDFIC 1, 120 μg/kg/day, n 8): 0.1 | Autotaxin, change from baseline to week 24, mean (PEDFIC 1, 120 μg/kg/day, n 12): -1018 ng/mL | C4 (7alpha-hydroxy-4-cholesten-3-one), change from baseline to week 24, mean (PEDFIC 1, 120 μg/kg/day, n 12): 15.8 ng/mL | PELD/MELD, change from baseline to week 24, mean (PEDFIC 1, 120 μg/kg/day, n 14): −1.1 | GGT, change from baseline to week 24, mean (SE) (PEDFIC 1, 120 μg/kg/day, n 15): −1 (1) U/L | Serum AST, change from baseline to week 24, mean (PEDFIC 1, 120 μg/kg/day, n 15): −27 U/L | Total bilirubin, change from baseline to week 24, mean (PEDFIC 1, 120 μg/kg/day, n 15): -1.1 mg/dL | Proportion of Patients with Reduction in Serum Bile Acids at End of Treatment (PEDFIC 1, 120 μg/kg/day, n = 19): 4 (21.1) n (%) | least squares mean treatment difference vs placebo in proportion of positive pruritus assessments (PEDFIC 1, 120 μg/kg/day): 21.7% | least square mean proportion of positive pruritus assessments at the patient level (PEDFIC 1, 120 μg/kg/day): 52% | proportion of patients achieving a serum bile acid response (≥70% reduction or ≤70 μmol/L) (PEDFIC 1, 120 μg/kg/day, week 24): 21% | percentage of days seeing blood due to scratching, number of awakenings, percentage of days taking medications to induce sleep: odevixibat vs placebo (PEDFIC 1, 24 weeks): no clear differences | reduction of autotaxin levels (PEDFIC 1, 24 weeks of treatment): approximately half | Patients with Reduction in Serum Bile Acids, % Difference vs Placebo (PEDFIC 1, Total odevixibat): 30.7% | Proportion of Positive Pruritus Assessments Over the Treatment Period, Mean (SE) (PEDFIC 1, Total odevixibat (N = 42), placebo 28.74 (5.209)): 53.51 (5.006) | Proportion of Patients with Reduction in Serum Bile Acids at End of Treatment (PEDFIC 1, Total odevixibat (N = 42), placebo 0): 14 (33.3) n (%) | Proportion of Positive Pruritus Assessments, Mean Difference vs Placebo (least squares means) (PEDFIC 1, Total odevixibat): 24.97 (8.240) | patients undergoing surgical interruption of the enterohepatic circulation or liver transplantation (PEDFIC 1, all 62 patients, during the study): None | mean (SE) change from baseline in ObsRO pruritus score (mean monthly) (PEDFIC 1, all doses, baseline to weeks 21 through 24, placebo −0.25 (0.2)): −1.11 (0.2) | APRI, change from baseline to week 24, mean (PEDFIC 1, all doses, n 23): −0.1 | FIB-4, change from baseline to week 24, mean (PEDFIC 1, all doses, n 23): 0.0 | Autotaxin, change from baseline to week 24, mean (PEDFIC 1, all doses, n 26): -1384 ng/mL | C4 (7alpha-hydroxy-4-cholesten-3-one), change from baseline to week 24, mean (PEDFIC 1, all doses, n 27): 15.7 ng/mL | PELD/MELD, change from baseline to week 24, mean (PEDFIC 1, all doses, n 29): −1.8 | GGT, change from baseline to week 24, mean (SE) (PEDFIC 1, all doses, n 32): −2 (1) U/L | Serum AST, change from baseline to week 24, mean (PEDFIC 1, all doses, n 32): −32 U/L | Total bilirubin, change from baseline to week 24, mean (PEDFIC 1, all doses, n 32): -1.3 mg/dL | least square mean proportion of positive pruritus assessments at the patient level (PEDFIC 1, all doses, placebo 30%): 55% and 55.1% | proportion of patients achieving a serum bile acid response (≥70% reduction or ≤70 μmol/L) (PEDFIC 1, all doses, week 24, placebo 0): 33% and 33.3% | mean (SE) change in serum ALT (PEDFIC 1, all doses, week 24, placebo 3.7 (5.0)): −26.7 (14.0) U/L | proportion of patients with clinically meaningful change in pruritus (≥1-point decrease, mean monthly score) (PEDFIC 1, all doses, week 24, placebo 11%): 43% | mean change in serum bile acid levels (PEDFIC 1, all doses, weeks 22 through 24 / end of treatment, placebo +13.1): -114.3 µmol/L | mean pruritus score change from baseline to end of treatment (PEDFIC 1, all doses, placebo −0.25, scale 0-4): −1.13 | mean change in daytime tiredness score (0-4) (PEDFIC 1, odevixibat overall, baseline to weeks 21 to 24, placebo −0.49): −0.99 | mean change from baseline in percentage of days needing help falling asleep (PEDFIC 1, odevixibat overall, weeks 21 to 24, placebo −3%): −43% | mean change from baseline in percentage of days sleeping with the caregiver (PEDFIC 1, odevixibat overall, weeks 21 to 24, placebo −6%): −42% | mean change from baseline in percentage of days with soothing (PEDFIC 1, odevixibat overall, weeks 21 to 24, placebo −8%): −44% | mean (SE) change from baseline to week 24 in weight Z-score (PEDFIC 1, patients treated with odevixibat, placebo 0.1 (0.1)): 0.2 (0.1) | mean (SE) change from baseline to week 24 in height Z-score (PEDFIC 1, patients treated with odevixibat, placebo −0.2 (0.1)): 0.0 (0.1) | proportion of patients who met serum bile acid response criteria (PEDFIC 1, patients with PFIC1, week 24): 17% | proportion of patients who met serum bile acid response criteria (PEDFIC 1, patients with PFIC2, week 24): 40%
